Results as given in PubChem BioAssay AID2060902 (Molecular Pharmacology Branch, DTP, NCI, 2025).

Tested on: 485368-065-R3-J5-PDC spheroids with HUVEC/MSC, viability
Experiment: Anticancer human tumor 485368-065-R3-J5-PDC patient-derived pancreatic carcinoma cell line growth inhibition [RAS]
Settings: for IC50: curve of first compound; for viability, T/C: stronger effect = lower value
Source text: RAS pathway inhibitors in Combinations in Complex Spheroids
A high-throughput screen of multi-cell type tumor spheroids was designed to identify active combinations of RAS pathway inhibitors and targeted small molecules. Complex spheroids include a stromal component modeled by human endothelial cells (HUVEC) and fibroblasts modeled by human mesenchymal stem cells (MSCs). The concentration ranges selected for each drug and investigational agent were based upon clinically achievable concentrations if the clinical Cmax of the agent was known.
Compounds. The drugs and investigational agents: abemaciclib (NSC768073), cobimetinib (NSC768068), divarasib (GDC6063, NSC841802), docetaxel (NSC628503), GDC-1971 (RLY-1971, NSC841576), gemcitabine (NSC613327), inavolisib (NSC800729), ipatasertib (NSC767898), KB-0742 (NSC834161), MRTX-1133 (NSC836407), osimertinib (NSC779217), RMC-4630 (NSC839698), RMC-6236 (NSC851965), RMC-6291 (NSC852671), Ro-3306 (NSC812927), sapanisertib (NSC764658), SN-38 (NSC673596), staurosporine (NSC755774), SY5609 (NSC837396), and tovorafenib (DAY101, NSC766906), were obtained from the National Cancer Institute (NCI) Developmental Therapeutics Program Chemical Repository. The FDA-approved anticancer drug set is available from the NCI Developmental Therapeutics Program. […] The stock solutions were prepared in dimethyl sulfoxide (DMSO, Sigma-Aldrich, St. Louis, MO, cat. D2650) at 800-fold the tested concentration and stored at -70 degrees C prior to their use. All drugs and investigational agents were tested over a range starting from a high concentration at or near the clinical Cmax and decreasing in half-log increments. If the clinical Cmax for an agent had not been determined, the highest concentration tested was 10 microM.
Cell Culture. All cells were maintained in an incubator at 37 degrees C and 5% CO2 with 95% humidity. The PDC lines were cultured according to standard operating procedures established by the NCI PDMR. All PDCs were thawed and cultured in Matrigel-coated flasks prepared with a working solution of 1X Ham's F-12 nutrient mix, without supplementation (Invitrogen, Waltham, MA, cat. 11765054), 100 U/mL penicillin-streptomycin (Invitrogen, cat. 15140122), and 2.5% Matrigel (Corning Inc., Corning, NY, cat. 354248) for the first three passages. The 362531-283-R-J2-PDC and 782815-120-R-J1-PDC lines were cultured in 6C/Colon 1B media, which includes advanced DMEM/F-12 (Thermo Fisher Scientific, cat. 12634028), 10 mM HEPES (Thermo Fisher Scientific, cat. 15630080), 1X GlutaMAX supplement (Thermo Fisher Scientific, cat. 35050061), 0.1 mg/mL primocin (InvivoGen, San Diego, CA, cat. ant-pm-2), 10% defined fetal bovine serum, heat inactivated (HyClone Laboratories Inc., Logan, UT, cat. SH30070.03HI), 50% L-WRN conditioned media (ATCC, cat. CRL-3276), 1.25 mM N-Acetyl-L-cysteine (Sigma-Aldrich, cat. A9165), 10 mM nicotinamide (Sigma-Aldrich, cat. N0636), 1X B-27 supplement (Thermo Fisher Scientific, cat. 17504044), 1X N-2 supplement (Thermo Fisher Scientific, cat. 17502048), 50 ng/mL human EGF (Thermo Fisher Scientific, cat. PHG0311), and 10 microM Y-27632 dihydrochloride (Tocris Bioscience, cat. 1254). The K12877-001-R-J1-PDC line was cultured in 6I media, which includes all 6C/Colon 1B media plus 10 ng/mL human FGF-10 (PeproTech, cat. 100-26), 1 ng/mL human FGF-2 (PeproTech, cat. 100-18B), 1 µM prostaglandin E2 (Tocris Bioscience, cat. 2296), […] hydrocortisone (Sigma-Aldrich, cat. H4001), and […] bovine insulin (Sigma-Aldrich, cat. I6634). The K86415-001-R-J1-PDC line was cultured in 6D media, which includes all 6C/Colon 1B media components minus the L-WRN conditioned media. The 485176-168-R4-J1-PDC was cultured in PANC media, which includes all 6C/Colon 1B media plus 100 ng/mL human FGF-10 (PeproTech, cat. 100-26), 500 nM SB-431542 (Selleckchem, cat. S1067), and 10 nM gastrin (Tocris Bioscience, cat. 3006). […]

[1] = second compound 0.0316 µM, first compound 0.0316 µM
[2] = second compound 0.0316 µM, first compound 0.1 µM
[3] = second compound 0.0316 µM, first compound 0.316 µM
[4] = second compound 0.0316 µM, first compound 1 µM
[5] = second compound 0.0316 µM, first compound 3.16 µM
[6] = second compound 0.0316 µM, first compound 10 µM
[7] = second compound 0.1 µM, first compound 0.0316 µM
[8] = second compound 0.1 µM, first compound 0.1 µM
[9] = second compound 0.1 µM, first compound 0.316 µM
[10] = second compound 0.1 µM, first compound 1 µM
[11] = second compound 0.1 µM, first compound 3.16 µM
[12] = second compound 0.1 µM, first compound 10 µM
[13] = second compound 0.316 µM, first compound 0.0316 µM
[14] = second compound 0.316 µM, first compound 0.1 µM
[15] = second compound 0.316 µM, first compound 0.316 µM
[16] = second compound 0.316 µM, first compound 1 µM
[17] = second compound 0.316 µM, first compound 3.16 µM
[18] = second compound 0.316 µM, first compound 10 µM
[19] = second compound 1 µM, first compound 0.0316 µM
[20] = second compound 1 µM, first compound 0.1 µM
[21] = second compound 1 µM, first compound 0.316 µM
[22] = second compound 1 µM, first compound 1 µM
[23] = second compound 1 µM, first compound 3.16 µM
[24] = second compound 1 µM, first compound 10 µM
[25] = second compound 3.16 µM, first compound 0.0316 µM
[26] = second compound 3.16 µM, first compound 0.1 µM
[27] = second compound 3.16 µM, first compound 0.316 µM
[28] = second compound 3.16 µM, first compound 1 µM
[29] = second compound 3.16 µM, first compound 3.16 µM
[30] = second compound 3.16 µM, first compound 10 µM
[31] = second compound 10 µM, first compound 0.0316 µM
[32] = second compound 10 µM, first compound 0.1 µM
[33] = second compound 10 µM, first compound 0.316 µM
[34] = second compound 10 µM, first compound 1 µM
[35] = second compound 10 µM, first compound 3.16 µM
[36] = second compound 10 µM, first compound 10 µM
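Note: spheroids exposed to agents for seven days before readout.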

CC(C)NCC(C(=O)N1CCN(c2ncnc3c2C(C)CC3O)CC1)c1ccc(Cl)cc1 (centres undefined) + C#Cc1c(F)ccc2cc(O)cc(-c3ncc4c(N5CC6CCC(C5)N6)nc(OCC56CCCN5CC(F)C6)nc4c3F)c12
IC50 (second compound 0.0316 µM): > 10 µM
IC50 (second compound 0.1 µM): > 10 µM
IC50 (second compound 0.316 µM): > 10 µM
IC50 (second compound 1 µM): 8.24 µM
IC50 (second compound 3.16 µM): 4.34 µM
IC50 (second compound 10 µM): < 0.0316 µM
viability, T/C [1]: 116%
viability, T/C [2]: 98.7%
viability, T/C [3]: 89.3%
viability, T/C [4]: 93.5%
viability, T/C [5]: 77.1%
viability, T/C [6]: 57.8%
viability, T/C [7]: 101%
viability, T/C [8]: 88.8%
viability, T/C [9]: 90.3%
viability, T/C [10]: 83.3%
viability, T/C [11]: 77.2%
viability, T/C [12]: 57.9%
viability, T/C [13]: 99%
viability, T/C [14]: 101%
viability, T/C [15]: 93.9%
viability, T/C [16]: 87.9%
viability, T/C [17]: 71.2%
viability, T/C [18]: 55%
viability, T/C [19]: 104%
viability, T/C [20]: 106%
viability, T/C [21]: 93.5%
viability, T/C [22]: 74.9%
viability, T/C [23]: 61.9%
viability, T/C [24]: 47%
viability, T/C [25]: 73.7%
viability, T/C [26]: 74%
viability, T/C [27]: 75.2%
viability, T/C [28]: 70.8%
viability, T/C [29]: 54.2%
viability, T/C [30]: 38.9%
viability, T/C [31]: 44.1%
viability, T/C [32]: 39.4%
viability, T/C [33]: 40.3%
viability, T/C [34]: 35.4%
viability, T/C [35]: 35.3%
viability, T/C [36]: 26.9%

CC(Nc1ccc2c(c1)OCCn1cc(N3C(=O)OCC3C(F)F)nc1-2)C(N)=O (centres undefined) + C#Cc1c(F)ccc2cc(O)cc(-c3ncc4c(N5CC6CCC(C5)N6)nc(OCC56CCCN5CC(F)C6)nc4c3F)c12
IC50 (second compound 0.0316 µM): > 10 µM
IC50 (second compound 0.1 µM): > 10 µM
IC50 (second compound 0.316 µM): 9.82 µM
IC50 (second compound 1 µM): > 10 µM
IC50 (second compound 3.16 µM): 1.61 µM
IC50 (second compound 10 µM): < 0.0316 µM
viability, T/C [1]: 95.9%
viability, T/C [2]: 93.4%
viability, T/C [3]: 85.4%
viability, T/C [4]: 80.1%
viability, T/C [5]: 74.5%
viability, T/C [6]: 51.9%
viability, T/C [7]: 101%
viability, T/C [8]: 90.3%
viability, T/C [9]: 82.4%
viability, T/C [10]: 91.2%
viability, T/C [11]: 77.9%
viability, T/C [12]: 57.2%
viability, T/C [13]: 92.7%
viability, T/C [14]: 93.5%
viability, T/C [15]: 91.5%
viability, T/C [16]: 85.7%
viability, T/C [17]: 81.7%
viability, T/C [18]: 48.8%
viability, T/C [19]: 83.4%
viability, T/C [20]: 85.8%
viability, T/C [21]: 90.7%
viability, T/C [22]: 72.6%
viability, T/C [23]: 69.1%
viability, T/C [24]: 51.5%
viability, T/C [25]: 73.4%
viability, T/C [26]: 56.2%
viability, T/C [27]: 54.5%
viability, T/C [28]: 60.5%
viability, T/C [29]: 46.8%
viability, T/C [30]: 32.8%
viability, T/C [31]: 33.8%
viability, T/C [32]: 31%
viability, T/C [33]: 24.6%
viability, T/C [34]: 25.9%
viability, T/C [35]: 21%
viability, T/C [36]: 18.6%
